Legend:
Type in all cases: in vivo
[1] = test system: foxtail, giant (giant foxtail, Setaria faberii); assay: Test A postemergence, visual plant response rating; settings: for Foxtail, Giant plant response rating (0 to 100 scale): 500 g ai/ha, postemergence, 0 is no effect, 100 is complete control; for Foxtail, Giant plant response rating: Postemergence, 125 g ai/ha, 0 to 100 scale (0 no effect, 100 complete control)
How it was run: (§1)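 Greenhouse pot test in loam–sand soil mix: compound in a surfactant-containing non-phytotoxic solvent applied preemergence (directed soil spray) or postemergence (one- to two-leaf plants, 2–10 cm). Injury scored visually after ~10 days, 0–100.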

[2] = test system: wheat (Triticum aestivum); assay: Test A postemergence, visual plant response rating; settings: for Wheat plant response rating (0 to 100 scale): 500 g ai/ha, postemergence, 0 is no effect, 100 is complete control; for Wheat plant response rating: Postemergence, 125 g ai/ha, 0 to 100 scale (0 no effect, 100 complete control)
How it was run: as §1

[3] = test system: ragweed (common ragweed, Ambrosia elatior); assay: Test A postemergence, visual plant response rating; settings: for Ragweed plant response rating (0 to 100 scale): 500 g ai/ha, postemergence, 0 is no effect, 100 is complete control; for Ragweed plant response rating: Postemergence, 125 g ai/ha, 0 to 100 scale (0 no effect, 100 complete control)
How it was run: as §1

[4] = test system: Italian ryegrass (Lolium multiflorum); assay: Test A postemergence, visual plant response rating; settings: for Ryegrass, Italian plant response rating (0 to 100 scale): 500 g ai/ha, postemergence, 0 is no effect, 100 is complete control; for Ryegrass, Italian plant response rating: Postemergence, 125 g ai/ha, 0 to 100 scale (0 no effect, 100 complete control)
How it was run: as §1

[5] = test system: pigweed (Amaranthus retroflexus); assay: Test A postemergence, visual plant response rating; settings: for Pigweed plant response rating (0 to 100 scale): 500 g ai/ha, postemergence, 0 is no effect, 100 is complete control; for Pigweed plant response rating: Postemergence, 125 g ai/ha, 0 to 100 scale (0 no effect, 100 complete control)
How it was run: as §1

[6] = test system: blackgrass (Alopecurus myosuroides); assay: Test A postemergence, visual plant response rating; settings: for Blackgrass plant response rating (0 to 100 scale): 500 g ai/ha, postemergence, 0 is no effect, 100 is complete control; for Blackgrass plant response rating: Postemergence, 125 g ai/ha, 0 to 100 scale (0 no effect, 100 complete control)
How it was run: as §1

[7] = test system: galium (catchweed bedstraw, Galium aparine); assay: Test A postemergence, visual plant response rating; settings: for Galium plant response rating (0 to 100 scale): 500 g ai/ha, postemergence, 0 is no effect, 100 is complete control; for Galium plant response rating: Postemergence, 125 g ai/ha, 0 to 100 scale (0 no effect, 100 complete control)
How it was run: as §1

[8] = test system: barnyardgrass (Echinochloa crus-galli); assay: Test A postemergence, visual plant response rating; settings: for Barnyardgrass plant response rating (0 to 100 scale): 500 g ai/ha, postemergence, 0 is no effect, 100 is complete control; for Barnyardgrass plant response rating: Postemergence, 125 g ai/ha, 0 to 100 scale (0 no effect, 100 complete control)
How it was run: as §1

kochia (Kochia scoparia) [9] = assay: Test A postemergence, visual plant response rating; settings: for Kochia plant response rating (0 to 100 scale): 500 g ai/ha, postemergence, 0 is no effect, 100 is complete control; for Kochia plant response rating: Postemergence, 125 g ai/ha, 0 to 100 scale (0 no effect, 100 complete control)
How it was run: as §1

corn (Zea mays) = assay: Test A postemergence, visual plant response rating; settings: for Corn plant response rating (0 to 100 scale): 500 g ai/ha, postemergence, 0 is no effect, 100 is complete control; for Corn plant response rating: Postemergence, 125 g ai/ha, 0 to 100 scale (0 no effect, 100 complete control)
How it was run: as §1

[10] = test system: foxtail, giant (giant foxtail, Setaria faberii); assay: Test A preemergence, visual plant response rating; settings: for Foxtail, Giant plant response rating: 125 g ai/ha, preemergence, 0 to 100 scale, 0 no effect, 100 complete control; for Foxtail, Giant plant response rating (0 to 100 scale): 500 g ai/ha Preemergence, approx. 10 days
How it was run: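 Ratings use a 0–100 visual scale (100 = complete control) against untreated controls, scored about 10 days after greenhouse treatment. Test chemicals were formulated in surfactant-containing non-phytotoxic solvent and applied either as soil spray after planting (preemergence) or onto one- to two-leaf, 2–10 cm plants (postemergence).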

[11] = test system: ragweed (common ragweed, Ambrosia elatior); assay: Test A preemergence, visual plant response rating; settings: for Ragweed plant response rating (0 to 100 scale): 500 g ai/ha Preemergence, approx. 10 days
How it was run: as §1

[12] = test system: Italian ryegrass (Lolium multiflorum); assay: Test A preemergence, visual plant response rating; settings: for Ryegrass, Italian plant response rating: 125 g ai/ha, preemergence, 0 to 100 scale, 0 no effect, 100 complete control; for Ryegrass, Italian plant response rating (0 to 100 scale): 500 g ai/ha Preemergence, approx. 10 days
How it was run: as §1

[13] = test system: pigweed (Amaranthus retroflexus); assay: Test A preemergence, visual plant response rating; settings: for Pigweed plant response rating: 125 g ai/ha, preemergence, 0 to 100 scale, 0 no effect, 100 complete control; for Pigweed plant response rating (0 to 100 scale): 500 g ai/ha Preemergence, approx. 10 days
How it was run: as §1

[14] = test system: barnyardgrass (Echinochloa crus-galli); assay: Test A preemergence, visual plant response rating; settings: for Barnyardgrass plant response rating: 125 g ai/ha, preemergence, 0 to 100 scale, 0 no effect, 100 complete control; for Barnyardgrass plant response rating (0 to 100 scale): 500 g ai/ha Preemergence, approx. 10 days
How it was run: as §1

kochia (Kochia scoparia) [15] = assay: Test A preemergence, visual plant response rating; settings: for Kochia plant response rating: 125 g ai/ha, preemergence, 0 to 100 scale, 0 no effect, 100 complete control; for Kochia plant response rating (0 to 100 scale): 500 g ai/ha Preemergence, approx. 10 days
How it was run: as §1

[16] = test system: ducksalad (Heteranhera limosa); assay: Test B flooded paddy test, visual plant response rating; settings: 250 g ai/ha, Flood, applied to paddy water, 2-leaf stage, evaluated after 13 to 15 days
How it was run: (§2)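 2-leaf plants; pots flooded 3 cm over soil surface; compound dosed straight into the floodwater; depth kept constant; greenhouse 13–15 d; visual rating vs. untreated controls.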

rice (Oryza sativa) = assay: as above; settings: 250 g ai/ha, Flood, applied to paddy water, 2-leaf stage, evaluated after 13 to 15 days
How it was run: as §2

[17] = test system: sedge, umbrella (small-flower umbrella sedge, Cyperus difformis); assay: as above; settings: 250 g ai/ha, Flood, applied to paddy water, 2-leaf stage, evaluated after 13 to 15 days
How it was run: as §2

[18] = test system: barnyardgrass (Echinochloa crus-galli); assay: as above; settings: 250 g ai/ha, Flood, applied to paddy water, 2-leaf stage, evaluated after 13 to 15 days
How it was run: as §2

Structure (SMILES) | Foxtail, Giant plant response rating (0 to 100 scale) [1] | Foxtail, Giant plant response rating [1] | Wheat plant response rating (0 to 100 scale) [2] | Wheat plant response rating [2] | Ragweed plant response rating (0 to 100 scale) [3] | Ragweed plant response rating [3] | Ryegrass, Italian plant response rating (0 to 100 scale) [4] | Ryegrass, Italian plant response rating [4] | Pigweed plant response rating (0 to 100 scale) [5] | Pigweed plant response rating [5] | Blackgrass plant response rating (0 to 100 scale) [6] | Blackgrass plant response rating [6] | Galium plant response rating (0 to 100 scale) [7] | Galium plant response rating [7] | Barnyardgrass plant response rating (0 to 100 scale) [8] | Barnyardgrass plant response rating [8] | Kochia plant response rating (0 to 100 scale) (kochia (Kochia scoparia) [9]) | Kochia plant response rating (kochia (Kochia scoparia) [9]) | Corn plant response rating (0 to 100 scale) (corn (Zea mays)) | Corn plant response rating (corn (Zea mays)) | also measured
CON=C(c1sccc1C)c1c(O)c(C)nn(C)c1=O [Compound 134] | 20 | 10 | 0 | 0 | 70 | 60 | 80 | 20 | 80 | 40 | 10 | 0 | 60 | 60 | 20 | 10 | 70 | 20 | 0 | 0 | Foxtail, Giant plant response rating [10]: 0; Foxtail, Giant plant response rating (0 to 100 scale) [10]: 10; Ragweed plant response rating (0 to 100 scale) [11]: 70; Ryegrass, Italian plant response rating [12]: 10; Ryegrass, Italian plant response rating (0 to 100 scale) [12]: 30; Pigweed plant response rating [13]: 20; Pigweed plant response rating (0 to 100 scale) [13]: 60; Barnyardgrass plant response rating [14]: 0; Barnyardgrass plant response rating (0 to 100 scale) [14]: 10; Kochia plant response rating (kochia (Kochia scoparia) [15]): 10; Kochia plant response rating (0 to 100 scale) (kochia (Kochia scoparia) [15]): 50; Plant response rating, Ducksalad (0 to 100 scale, 0 is no effect, 100 is complete control) [16]: 0; Plant response rating, Rice (0 to 100 scale, 0 is no effect, 100 is complete control) (rice (Oryza sativa)): 0; Plant response rating, Sedge, Umbrella (0 to 100 scale, 0 is no effect, 100 is complete control) [17]: 0; Plant response rating, Barnyardgrass (0 to 100 scale, 0 is no effect, 100 is complete control) [18]: 0
CON=C(c1c(O)c(C)nn(C)c1=O)c1csc2ccccc12 (single isomer, unassigned) [Compound 46] | 0 | 0 | 0 | 0 | 70 | 40 | 10 | 10 | 20 | 10 | 0 | 0 | 60 | 30 | 0 | 0 | 0 | 0 | 0 | 0 | Foxtail, Giant plant response rating [10]: 0; Foxtail, Giant plant response rating (0 to 100 scale) [10]: 0; Ragweed plant response rating ([11]; 125 g ai/ha, preemergence, 0 to 100 scale, 0 no effect, 100 complete control): 20; Ragweed plant response rating (0 to 100 scale) [11]: 50; Ryegrass, Italian plant response rating [12]: 0; Ryegrass, Italian plant response rating (0 to 100 scale) [12]: 0; Pigweed plant response rating [13]: 0; Pigweed plant response rating (0 to 100 scale) [13]: 10; Barnyardgrass plant response rating [14]: 0; Barnyardgrass plant response rating (0 to 100 scale) [14]: 0; Kochia plant response rating (kochia (Kochia scoparia) [15]): 0; Kochia plant response rating (0 to 100 scale) (kochia (Kochia scoparia) [15]): 30; Plant response rating, Ducksalad (0 to 100 scale, 0 is no effect, 100 is complete control) [16]: 0; Plant response rating, Rice (0 to 100 scale, 0 is no effect, 100 is complete control) (rice (Oryza sativa)): 0; Plant response rating, Sedge, Umbrella (0 to 100 scale, 0 is no effect, 100 is complete control) [17]: 0; Plant response rating, Barnyardgrass (0 to 100 scale, 0 is no effect, 100 is complete control) [18]: 0
